Laboratory results as given in ChEMBL document CHEMBL3137440, “DNDi T. cruzi fenarimol series dataset from which preclinical candidate EPL-BS0967 was identified (see also related datasets: CHEMBL3137386 and CHEMBL2448688)”.
Converted amounts (≈) assume the structure as drawn. “And” between values parts separate entries of the source, which are not always exact repeats. Equal entries are not always repeated.

How the values were obtained:
Trypanosoma cruzi [1] = test: (§1) DNDI: Chagas in Vitro; format: functional, organism-based, Tulahuen C4 (LacZ)
Trypanosoma cruzi [2] = test: as §1; format: functional, Tulahuen C4 (LacZ)
[3] = DNDI: Cytotoxicity against L-6 rat myoblasts from skeletal musclE; details: L6 rat skeletal muscle myoblasts, IC50
Leishmania donovani = test: DNDI: Inhibition of formation of Leishmania donovani; format: functional, MHOM/ET/67/L82; design: concentration or dose not given beside the values
[4] = DNDI: Lipophilicity (gLogD) at pH 3; details: buffer
[5] = DNDI: Solubility in phosphate buffer at pH 6.5 determined by nephelometry
in vitro [6] = details: human, microsomes
in vitro [7] = details: human, microsomes; remark: listed apart in the source
Cytochrome P450 3A4 [8] = target: T1, Cytochrome P450 3A4 (Homo sapiens, UniProt P08684); test: DNDI: CYP Inhibition; format: ADME
T1 sequence (P08684 whole entry): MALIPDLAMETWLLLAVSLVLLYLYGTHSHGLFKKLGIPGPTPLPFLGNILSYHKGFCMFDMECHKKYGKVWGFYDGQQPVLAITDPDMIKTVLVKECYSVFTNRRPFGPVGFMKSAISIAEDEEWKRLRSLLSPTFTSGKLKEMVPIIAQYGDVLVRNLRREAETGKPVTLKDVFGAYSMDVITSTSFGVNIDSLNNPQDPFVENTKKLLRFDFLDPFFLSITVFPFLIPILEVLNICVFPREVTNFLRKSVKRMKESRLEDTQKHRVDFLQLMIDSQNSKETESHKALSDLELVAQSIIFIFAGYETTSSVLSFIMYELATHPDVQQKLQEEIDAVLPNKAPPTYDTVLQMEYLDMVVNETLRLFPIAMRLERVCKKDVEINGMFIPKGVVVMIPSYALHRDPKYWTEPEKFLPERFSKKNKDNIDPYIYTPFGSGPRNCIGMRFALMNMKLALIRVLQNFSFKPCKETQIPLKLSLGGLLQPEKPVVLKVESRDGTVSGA

[9] = DNDI: Metabolism; format: ADME, Microsome; details: rat, microsomes; for hepatic extraction ratio: read-out: EH
[10] = DNDI: Solubility in 0.01M HCl at pH 2 determined by nephelometry
in vitro [11] = details: human, microsomes; remark: listed apart in the source
[12] = DNDI: Lipophilicity (gLogD) at pH 7.4; details: buffer
Cytochrome P450 3A4 [13] = target: T1, Cytochrome P450 3A4
Cytochrome P450 3A4 [14] = target: T1, Cytochrome P450 3A4; remark: listed apart in the source
[15] = system: Trypanosoma brucei rhodesiense; test: DNDI: HAT in Vitro; format: functional, organism-based; details: ATCC 30027
[16] = Trypanosoma cruzi, Tulahuen C4 (LacZ)

Compound | IC50 (Trypanosoma cruzi [1]; [16]) [nM] | IC90 (Trypanosoma cruzi [2]; [16]) [nM] | IC50 [3] [nM] | % inhibition (Leishmania donovani) [%] | chromatographic logD ([4]; pH 3) | solubility kinetic [5] [µg/mL] | half-life (in vitro [6]) [min] | microsomal CLint (in vitro [7]) [µL/min/mg] | half-life [9] [min] | microsomal CLint [9] [µL/min/mg] | hepatic extraction ratio [9] | solubility kinetic [10] [µg/mL] | hepatic extraction ratio (in vitro [11]) | chromatographic logD ([12]; pH 7.4) | also measured
N#Cc1ccc(N(c2cccnc2)C2CCN(c3ccc(C(F)(F)F)cc3)CC2)cc1 | 3 | 9 | > 100000 | 28.1 | 4.6 | < 1.6 | 43.9 | 39.5 |  |  |  |  |  |  | IC90 (Trypanosoma cruzi [2]): 10 nM
CC(C)(C)CC(=O)N1CCC(N(c2ccc(Cl)cc2)c2cccnc2)CC1 | 0.595 | 1.93 |  | 42.9 | 2.4 |  | 9.9 | 175 | 4.9 | 357 | 0.92 | > 100 | 0.91 |  | IC50 (Cytochrome P450 3A4 [8]): 800 nM
CC(C)(C)C(=O)N1CCC(N(c2ccc(C(F)(F)F)cc2)c2cccnc2)CC1 | 2.66 | 7.59 |  |  | 3.1 | 6.3 (≈ 15.5 µM) | 13.8 | 126 | 13.2 | 131 | 0.81 | > 100 | 0.88 | 4.2 | IC50 (Cytochrome P450 3A4 [13]): 1900 nM
O=C(c1ccccc1C(F)(F)F)N1CCC(N(c2ccc(C(F)(F)F)cc2)c2cccnc2)CC1 | 0.618 | 1.47 |  | 66.3 | 3.5 | 1.6 (≈ 3.24 µM) | 7 | 247 | 24 | 72.1 | 0.7 | > 100 | 0.93 | 4.4 | IC50 (Cytochrome P450 3A4 [13]): 1700 nM
FC(F)(F)c1ccc(N2CCC(N(c3ccc(C(F)(F)F)cc3)c3cccnc3)CC2)cc1 | 15 | 38 |  | 38.5 |  |  |  |  |  |  |  |  |  |  | IC50 (Trypanosoma cruzi [1]): 23 nM and 16.5 nM; IC90 (Trypanosoma cruzi [2]): 28 nM and 41 nM
N#Cc1ccccc1N1CCC(N(c2ccc(C(F)(F)F)cc2)c2cccnc2)CC1 | 3 | 8 |  | 60.9 | 4.4 | < 1.6 | 12.8 | 136 |  |  |  | > 100 | 0.88 |  | 
N#Cc1ccc(N2CCC(N(c3ccc(C(F)(F)F)cc3)c3cccnc3)CC2)cc1 | 7 | 13 | > 100000 | 51.5 | 4.3 | < 1.6 | 15.5 | 112 |  |  |  | 50 (≈ 118 µM) |  | 4.7 | 
Cc1ncsc1C(=O)N1CCC(N(c2ccc(C(F)(F)F)cc2)c2cccnc2)CC1 | 6.93 | 11 | 67400 |  | 2.1 | 12.5 (≈ 28 µM) | 16.6 | 105 | 28.1 | 61.8 | 0.67 | > 100 | 0.85 | 3.3 | IC50 (Cytochrome P450 3A4 [13]): 2900 nM
CS(=O)(=O)N1CCC(N(c2ccc(Cl)cc2)c2cccnc2)CC1 | 94 | 280 | 62500 |  | 1.6 | 12.5 (≈ 34.2 µM) | 35.5 | 48.8 | 27.7 | 62.6 | 0.67 | > 100 | 0.73 | 3.1 | IC50 (Cytochrome P450 3A4 [8]): 2600 nM
O=C(C1CC1)N1CCC(N(c2ccc(Cl)cc2)c2cccnc2)CC1 | 5.82 | 13.4 | 78200 |  | 1.6 | 12.5 (≈ 35.1 µM) | 24 | 72.3 | 10.1 | 171 | 0.85 | > 100 | 0.8 | 3.4 | IC50 (Cytochrome P450 3A4 [8]): 1500 nM
O=C(c1ccccc1)N1CCC(N(c2ccc(Cl)cc2)c2cccnc2)CC1 | 16 | 61.7 | 52500 |  | 2.1 | 6.3 (≈ 16.1 µM) | 12.5 | 139 | 7.5 | 231 | 0.88 | > 100 | 0.89 | 3.8 | IC50 (Cytochrome P450 3A4 [8]): 1900 nM
N#Cc1cc(C(F)(F)F)ccc1N1CCC(N(c2ccc(Cl)cc2)c2cccnc2)CC1 | 5 | 10.5 | 17700 |  | 4.7 | < 1.6 | 16.8 | 103 |  |  |  | 25 (≈ 54.7 µM) | 0.85 | > 5.3 | IC50 (Cytochrome P450 3A4 [14]): > 20000 nM
Cn1nc(C2CC2)cc1N1CCC(N(c2ccc(C(F)(F)F)cc2)c2cccnc2)CC1 | 7 | 13.5 | 30000 |  | 4.6 | < 1.6 | 14.6 | 118 |  |  |  | 50 (≈ 113 µM) | 0.87 | 4.8 | IC50 (Cytochrome P450 3A4 [14]): > 20000 nM
CCC(C(C)O)N1CCC(N(c2ccc(C(F)(F)F)cc2)c2cccnc2)CC1 (stereo not given) | 61 | > 100 | 49600 |  |  | 25 (≈ 61.4 µM) |  |  |  |  |  | > 100 |  |  | chromatographic logD ([4]; pH 3, logD): 1.6; chromatographic logD ([12]; pH 7.4, logD): 4.3; IC50 (Cytochrome P450 3A4 [14]): 17000 nM; half-life (in vitro [6]; t (1 / 2)): 35.8 min; hepatic extraction ratio (in vitro [11]; EH): 0.73; microsomal CLint (in vitro [7]; CLint): 48.4 µL/min/mg
FC(F)(F)c1ccc(N(c2cncnc2)C2CCN(c3ccc(C(F)(F)F)nc3)CC2)cc1 | 10 |  |  |  |  |  |  |  |  |  |  |  |  |  | IC50 (Trypanosoma cruzi [1]): 15.9 nM; IC90 (Trypanosoma cruzi [2]): 21 nM and > 100 nM; IC50 [15]: > 10000 nM
CC(C)C(O)CN1CCC(N(c2ccc(C(F)(F)F)cc2)c2cccnc2)CC1 (stereo not given) | 36 | > 10000 | 51500 |  |  | 25 (≈ 61.4 µM) |  |  |  |  |  | > 100 |  |  | chromatographic logD ([4]; pH 3, logD): 1.6; chromatographic logD ([12]; pH 7.4, logD): 3.9; IC50 (Cytochrome P450 3A4 [14]): > 20000 nM; half-life (in vitro [6]; t (1 / 2)): 29.8 min; hepatic extraction ratio (in vitro [11]; EH): 0.76; microsomal CLint (in vitro [7]; CLint): 58.2 µL/min/mg
CC(C)(F)CN1CCC(N(c2ccc(C(F)(F)F)cc2)c2cccnc2)CC1 | 15 | 25 | 64900 |  |  | 3.1 (≈ 7.84 µM) |  |  |  |  |  | > 100 |  |  | IC50 [15]: > 10000 nM; chromatographic logD ([4]; pH 3, logD): 1.8; chromatographic logD ([12]; pH 7.4, logD): 5.1; half-life (in vitro [6]; t (1 / 2)): 12.6 min; microsomal CLint (in vitro [7]; CLint): 138 µL/min/mg
FC(F)(F)c1ccc(N(c2cccnc2)C2CCN(C(c3ccccc3)C(F)(F)F)CC2)cc1 (stereo not given) | 5130 | 8140 | > 100000 |  |  | 1.6 (≈ 3.34 µM) |  |  |  |  |  | > 100 |  |  | IC50 (Trypanosoma cruzi [1]): 5130 nM; IC90 (Trypanosoma cruzi [2]): 8140 nM; IC50 [15]: > 10000 nM; chromatographic logD ([4]; pH 3, logD): > 5.3; chromatographic logD ([12]; pH 7.4, logD): > 5.3; IC50 (Cytochrome P450 3A4 [14]): > 20000 nM; half-life (in vitro [6]; t (1 / 2)): 62.6 min; hepatic extraction ratio (in vitro [11]; EH): 0.61; microsomal CLint (in vitro [7]; CLint): 27.7 µL/min/mg
